Laboratory results published in article PMC8829089, “The Pseudomonas aeruginosa homeostasis enzyme AlgL clears the periplasmic space of accumulated alginate during polymer biosynthesis” (The Journal of Biological Chemistry, 2022).

Target: T1, AlgL (NHis6-AlgL^28–362) (Pseudomonas aeruginosa, UniProt Q06749)
T1 construct: residues 28-362, signal peptide removed, N-terminal His6 tag (pET28b), expressed in E. coli; one molecule in the asymmetric unit
Test: X-ray crystal structure, […] Å
Type: binding
Conditions: cocrystallized with 8 mM mannuronate trisaccharide (ManA3); only one sugar monomer seen in density, subsite +1 of active site

T1 sequence (Q06749 28-362): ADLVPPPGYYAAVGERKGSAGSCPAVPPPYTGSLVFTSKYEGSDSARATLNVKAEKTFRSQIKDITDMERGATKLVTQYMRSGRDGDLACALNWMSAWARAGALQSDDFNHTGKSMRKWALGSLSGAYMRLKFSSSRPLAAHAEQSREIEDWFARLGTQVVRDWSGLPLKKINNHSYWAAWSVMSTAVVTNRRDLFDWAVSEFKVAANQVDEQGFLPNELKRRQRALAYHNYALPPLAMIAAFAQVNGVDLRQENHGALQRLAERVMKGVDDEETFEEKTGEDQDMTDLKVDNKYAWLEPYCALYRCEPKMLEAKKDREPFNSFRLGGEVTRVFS

With `O=C(O)[C@H]1OC(O)[C@@H](O)[C@@H](O)[C@@H]1O` (stereo partly shown) [ManA, mannuronate] the “X-ray crystal structure, 1.64 Å” value was “we were only able to detect electron density for a sugar monomer”.
